In patent publication US4223036A, “1-(1,3-Dioxolan-2-ylmethyl)-1H-1,2,4-triazoles” (Janssen Pharmaceutica N.V., priority 1979, dated 1980):

Legend:
[1] = test system: Candida albicans; assay: Activity against vaginal candidosis in rats (lowest oral dose active at the 14th day after infection); format: in vivo, Female Wistar rats; parameters: lowest effective oral dose (vaginal candidosis in rats): unit not given here; details: oral once a day for two days, active at 14th day after infection; for minimal effective dose: Candida albicans, 336 h; for lowest effective oral dose (vaginal candidosis in rats): Table I
Method: Experiment A: Activity of Compounds (I) Against Vaginal Candidosis in Rats
Female Wistar rats of ±100 g body weight were used. They were ovariectomized and hysterectomized and after three weeks of recovery, 100 μg of oestradiol undecylate in sesame oil was given subcutaneously once a week for 3 consecutive weeks. The thus induced pseudooestrus was controlled by microscopic examination of vaginal smears. Food and water were left available ad libitum.
The rats were infected intravaginally with 8.10^5 cells of Candida albicans, grown on Sabouraud broth for 48 hours at 37° C. and diluted with saline. The date of infection varied from day +25 to day +32 after surgical intervention, depending on the appearance of signs of induced pseudo-oestrus.
The drugs under investigation were administered orally once a day for two days starting from the day of infection. For each experiment there were placebo treated controls. The results were assessed by taking vaginal smears with sterile swabs on several days after infection. The swabs were put into Sabouraud broth in petri-dishes and incubated for 48 hours a 37° C. If no growth of Candida albicans occured, i.e., when the animals were negative at the end of the experiment, this was due to drug administration because it never happened in placebo treated controls.
The Tables I, II and III below give the lowest oral dose of the drug under investigation which was found active at the 14th day after infection.

[2] = test system: Candida albicans; assay: Activity against crop candidosis in turkeys (dose whereby crops of 50% of animals were completely negative); format: in vivo; details: medicated feed for 13 consecutive days
Method: Experiment B: Activity of Compounds (I) Against Crop Candidosis in Turkeys
Turkeys of 14 days old were infected in the crop with 4.10^6 Candida albicans cells, grown on Sabouraud broth for 48 hours at 37° C. and diluted with saline. The volume of the inoculum was 1 ml. The drug under investigation were premixed in 500 mg of lacton and thereafter admixed in 1000 g of meal without any additives. The concentration of the drug under investigation in the meal was expressed in mg/kg.
The animals were given the medicated feed for 13 consecutive days starting on the day of infection. At the end of the experiment all animals were sacrificed. At autopsy the crops were removed, emptied and grinded in an ultra-turrax mixer in 15 ml of sterile saline. Colony counting was done on Sabouraud agar and the results given in the Tables I, II and III represent the ED50, i.e., the dose of the drug whereby the crops of 50% of the animals were completely negative for Candida albicans.

Structure (SMILES) | lowest effective oral dose (vaginal candidosis in rats) [1] | ED50 (crop candidosis in turkeys) ([2]; Table I) | also measured
CC(C)CN1CCN(c2ccc(OC[C@H]3CO[C@](Cn4cncn4)(c4ccc(Cl)cc4Cl)O3)cc2)CC1 (relative stereo) [CH2CH(CH3)2] |  |  | minimal effective dose ([1]; Table II): 2.5 mg/kg; ED50 (crop candidosis in turkeys) ([2]; Table II): 31 mg/kg of feed
CS(=O)(=O)N1CCN(c2ccc(OC[C@H]3CO[C@](Cn4ccnc4)(c4ccc(Cl)cc4Cl)O3)cc2)CC1 (relative stereo) | 1.25 | 31 mg/kg of feed | 
Nc1ccc(OC[C@H]2CO[C@](Cn3ccnc3)(c3ccc(Cl)cc3Cl)O2)cc1 (relative stereo) [NH2, cis-4-[2-(2,4-dichlorophenyl)-2-(1H-imidazol-1-ylmethyl)-1,3-dioxolan-4-ylmethoxy]benzenamine] | 5 | 125 mg/kg of feed | 
CCNC(=S)Nc1ccc(OC[C@H]2CO[C@](Cn3ccnc3)(c3ccc(Cl)cc3Cl)O2)cc1 (relative stereo) [NHCSNHC2 H5, cis-N-{4-[2-(2,4-dichlorophenyl)-2-(1H-imidazol-1-ylmethyl)-1,3-dioxolan-4-ylmethoxy]phenyl}-N'-ethylthiourea] | 5 | 125 mg/kg of feed | 
COC(=O)Nc1ccc(OC[C@H]2CO[C@](Cn3ccnc3)(c3ccc(Cl)cc3Cl)O2)cc1 (relative stereo) [NHCOOCH3, cis-methyl {4-[2-(2,4-dichlorophenyl)-2-(1H-imidazol-1-ylmethyl-1,3-dioxolan-4-ylmethoxy]phenyl}-carbamate nitrate] | 5 | 31 mg/kg of feed | 
O=C(Nc1ccc(OC[C@H]2CO[C@](Cn3ccnc3)(c3ccc(Cl)cc3Cl)O2)cc1)Oc1ccccc1 (relative stereo) | 10 | 125 mg/kg of feed | 
Clc1ccc([C@@]2(Cn3ccnc3)OC[C@H](COc3ccc(N4CCNCC4)cc3)O2)c(Cl)c1 (relative stereo) | 5 | 125 mg/kg of feed | 
O=C(Nc1ccc(OC[C@H]2CO[C@](Cn3ccnc3)(c3ccc(Cl)cc3Cl)O2)cc1)C(Cl)Cl (relative stereo) [NHCOCH(Cl)2, cis-2,2-dichloro-N-{4-[2-(2,4-dichlorophenyl)-2-(1H-imidazol-1-ylmethyl)-1,3-dioxolan-4-ylmethoxy]phenyl}acetamide] | 10 | 125 mg/kg of feed | 
CN(C)c1ccc(OC[C@H]2CO[C@](Cn3ccnc3)(c3ccc(Cl)cc3Cl)O2)cc1 (relative stereo) [cis-4-[2-(2,4-dichlorophenyl)-2-(1H-imidazol-1-ylmethyl)-1,3-dioxolan-4-ylmethoxy]-N,N'-dimethylbenzenamine diethanedioate.hydrate] | 10 | 31 mg/kg of feed | 
Nc1ccc(OC[C@H]2CO[C@](Cn3ccnc3)(c3ccc(Cl)cc3Cl)O2)cc1[N+](=O)[O-] (relative stereo) [Example 4-NH2, cis-4-[2-(2,4-dichlorophenyl)-2-(1H-imidazol-1-ylmethyl)-1,3-dioxolan-4-ylmethoxy]-2-nitrobenzenamine] |  |  | minimal effective dose ([1]; Table III): 5 mg/kg; ED50 (crop candidosis in turkeys) ([2]; Table III): 31 mg/kg of feed
CCNC(=O)Nc1ccc(OC[C@H]2CO[C@](Cn3ccnc3)(c3ccc(Cl)cc3Cl)O2)cc1 (relative stereo) [NHCONHC2 H5, cis-N-{4-[2-(2,4-dichlorophenyl)-2-(1H-imidazol-1-ylmethyl)-1,3-dioxolan-4-ylmethoxy]phenyl}-N'-ethylurea] | 10 | 125 mg/kg of feed | 
CCNC(=O)N1CCN(c2ccc(OC[C@H]3CO[C@](Cn4ccnc4)(c4ccc(Cl)cc4Cl)O3)cc2)CC1 (relative stereo) | 10 | 125 mg/kg of feed | 
